Measurements: patent publication US20130202698A1 (NANJING SANHOME PHARMACEUTICAL CO., LTD., priority 2005, published 2013)
Read-outs that look alike come from different tables or passages of the source. Marks after values point to notes of the source that are not given here.

Columns and labels:
[1] = tested on: Remefline-induced convulsion; test: Anticonvulsant effects on Remefline-induced convulsion in mice; type: in vivo
Protocol: In one experiment, the anticonvulsant effects of levo- and dextro-ornidazole against drug-induced convulsions in mice were compared. In four different animal convulsion models, mice were treated by four different seizure-inducing agents, including Remefline, Strychnine, isoniazid, thiosemicarbazide. Levo- or dextro-ornidazole was administered along with the seizure-inducing agents, and several outcomes were measured, including rate of convulsion, mortality rate, time to convulsion (latency), and time to death. Diazepam was used as a positive anticonvulsant control.
Mice are randomized into 4 treatment groups (n=10 with half male and half female): dextro- or levo-ornidazole (dosage 40, 80, 160 mg/kg), vehicle control group (15% propylene glycol in 0.9% sodium chloride, 20 mL/kg) and the positive control group. Animals are treated with known convulsion-inducing agents, followed by the drug or vehicle control given intravenously. The dose volume is 20 mL/kg with an infusion rate of 0.2 mL/10 seconds.

[2] = tested on: Strychnine-induced convulsion; test: Anticonvulsant effects on Strychnine-induced convulsion in mice; type: in vivo; settings: n=10; for Convulsion Latency: Mean ± SD
Protocol: (§1) Mice are randomized into 4 treatment groups (n=10 with half male and half female): dextro- or levo-ornidazole (dosage 40, 80, 160 mg/kg), vehicle control group (15% propylene glycol in 0.9% sodium chloride, 20 mL/kg) and the positive control group. Animals are treated with known convulsion-inducing agents, followed by the drug or vehicle control given intravenously. The dose volume is 20 mL/kg with an infusion rate of 0.2 mL/10 seconds. The anticonvulsant effects are observed and recorded (see Tables 2-6).

[3] = tested on: isoniazid-induced convulsion; test: Anticonvulsant effects on isoniazid-induced convulsion in mice; type: in vivo; settings: Mean ± SD, n=10
Protocol: as §1

[4] = tested on: thiosemicarbazide-induced convulsion; test: Anticonvulsant effects on thiosemicarbazide-induced convulsion in mice; type: in vivo; settings: n=10; for Convulsion Latency / Time to Death: Mean ± SD; for Mortality Rate / Rate of Convulsion: 160 mg/kg i.v.
Protocol: as §1

glutamate = test: Effects on excitatory neurotransmitter glutamate levels in mice brain; type: in vivo
Text: In another experiment, the effects on excitatory neurotransmitter levels by levo- and dextro-ornidazole were compared.

[5] = Acute toxicity in mice (LD50); settings: mouse, in vivo
[6] = Phase II clinical trial, intravenous, adverse events; type: in vivo, human; settings: human, in vivo, iv
Protocol: A double-blinded randomized controlled trial was carried out to compare the adverse events between the I.V. levo-ornidazole and racemate treatment groups. […] The high rate of adverse events observed from the treatment by the racemic drug caused patient treatment non-compliant, which could be dangerous for life-threatening infections.

[7] = tested on: spontaneous activities of mice; settings: both, mouse, in vivo, iv
Protocol: Mice weighing 18-22 g, half male and half female, were placed in the laboratory 24 hours before the test to adapt to the environment. The room temperature was controlled at 24±2° C. Animals were fasted for 8 hours before testing, and then placed in a transparent cage. The number of spontaneous activities of mice was counted by an automatic device (model XZ-4 by Drug Research Institute of China Academy of Medical Sciences). Mice were pre-screened by counting their spontaneous activities for five minutes and unqualified mice were excluded. A total of 110 mice were selected and divided into 11 groups with 10 mice in each group.
Chlorpromazine (3 mg/kg) was used as the positive control. The dose volume was 0.2 mL/10 gram and infusion rate was 0.2 mL/10 seconds.

Purkinje cells = settings: dog, in vivo, 200 mg/kg
Protocol: Male and female Beagle dogs were kept in laboratory conditions for 1 week to observe general health conditions. […] Animals were treated at dose of I.V. 200 mg/kg for ornidazole enantiomers, or 10 mL/kg for vehicle control for 2 weeks, then sacrificed for anatomical and pathological examinations.
Quantitative data were analyzed by group test and qualitative data by simplified direct probability method. A 10×10 area under low magnification was used to count cerebellar Purkinje cells.

Cc1ncc([N+](=O)[O-])n1C[C@H](O)CCl [L-ornidazole, S-(−)-ornidazole]
Mortality Rate ([1]; 40 mg/kg i.v., n=10): 10/10 | Rate of Convulsion ([1]; 40 mg/kg i.v., n=10): 10/10 | Rate of Convulsion ([1]; 80 mg/kg i.v., n=10): 10/10^# | Mortality Rate ([1]; 80 mg/kg i.v., n=10, listed as Levo-ornidazole, 80 mg/kg): 10/10^## | Mortality Rate ([1]; 80 mg/kg i.v., n=10, listed as levo-ornidazole, 80 mg/kg): 10/10 | Mortality Rate ([1]; 160 mg/kg i.v., n=10): 1/10** | Rate of Convulsion ([1]; 160 mg/kg i.v., n=10): 9/10^## | Convulsion Latency ([2]; 40 mg/kg i.v.): 5.3 ± 2.3 min | Mortality Rate ([2]; 40 mg/kg i.v.): 10/10 | Convulsion Latency ([2]; 80 mg/kg i.v.): 7.5 ± 3.3 min | Mortality Rate ([2]; 80 mg/kg i.v.): 10/10 | Convulsion Latency ([2]; 160 mg/kg i.v.): 8.6 ± 2.3 min | Mortality Rate ([2]; 160 mg/kg i.v.): 6/10^# | Convulsion Latency ([3]; 40 mg/kg i.v.): 37.1 ± 5.8 min | Time to Death ([3]; 40 mg/kg i.v.): 47.6 ± 5.6 min | Convulsion Latency ([3]; 80 mg/kg i.v.): 38.3 ± 6.3 min | Time to Death ([3]; 80 mg/kg i.v.): 48.3 ± 9.6 min | Convulsion Latency ([3]; 160 mg/kg i.v.): 45.0 ± 7.8 min | Time to Death ([3]; 160 mg/kg i.v.): 75.2 ± 19.0 min | Convulsion Latency ([4]; 40 mg/kg i.v.): 77.1 ± 16.8 min | Time to Death ([4]; 40 mg/kg i.v.): 122.6 ± 29.8 min | Convulsion Latency ([4]; 80 mg/kg i.v.): 85.0 ± 30.9 min | Time to Death ([4]; 80 mg/kg i.v.): 116.7 ± 38.7 min | Mortality Rate [4]: 9/10^## | Rate of Convulsion [4]: 9/10^## | Effect on glutamate levels in cerebrum and cerebellum (glutamate; FIG. 4, listed as Levo-ornidazole): little effect | Effect on glutamate levels in cerebrum and cerebellum (glutamate; FIG. 4, listed as levo-ornidazole): little effects | LD50 ([5]; intravenous injection): 332 mg/kg | LD50 ([5]; ip, intraperitoneal injection): 1380 mg/kg | LD50 ([5]; oral gavage): 1070 mg/kg | Adverse events reported (total) [6]: 3 | Appetite drop, # of Patients with AE [6]: 1 | Appetite drop, Incidence (%) [6]: 0.74% | Dizziness, # of Patients with AE [6]: 0 | Dizziness, Incidence (%) [6]: 0.00% | Dry mouth, # of Patients with AE [6]: 0 | Dry mouth, Incidence (%) [6]: 0.00% | Headache, # of Patients with AE [6]: 0 | Headache, Incidence (%) [6]: 0.00% | Hypersomnia, # of Patients with AE [6]: 0 | Hypersomnia, Incidence (%) [6]: 0.00% | Hypodynamia, # of Patients with AE [6]: 0 | Hypodynamia, Incidence (%) [6]: 0.00% | Nausea, # of Patients with AE [6]: 0 | Nausea, Incidence (%) [6]: 0.00% | Patients with adverse events (total) [6]: 2 patients | Stomach discomfort, # of Patients with AE [6]: 0 | Stomach discomfort, Incidence (%) [6]: 0.00% | Total incidence rate of adverse events [6]: 1.47% | Vertigo, # of Patients with AE [6]: 0 | Vertigo, Incidence (%) [6]: 0.00% | Vomiting, # of Patients with AE [6]: 0 | Vomiting, Incidence (%) [6]: 0.00% | WBC decline, # of Patients with AE [6]: 2 | WBC decline, Incidence (%) [6]: 1.47% | Spontaneous Activities (per 5 min) ([7]; 40 mg/kg, 0.5 h): 89 ± 48 per 5 min | Spontaneous Activities (per 5 min) ([7]; 40 mg/kg, 1 h): 75 ± 40 per 5 min | Spontaneous Activities (per 5 min) ([7]; 40 mg/kg, 2 h): 69 ± 29 per 5 min | Spontaneous Activities (per 5 min) ([7]; 40 mg/kg, 3 h): 63 ± 16 per 5 min | Spontaneous Activities (per 5 min) ([7]; 40 mg/kg, 4 h): 87 ± 43 per 5 min | Spontaneous Activities (per 5 min) ([7]; 80 mg/kg, 0.5 h): 59 ± 27 per 5 min | Spontaneous Activities (per 5 min) ([7]; 80 mg/kg, 1 h): 47 ± 30 per 5 min | Spontaneous Activities (per 5 min) ([7]; 80 mg/kg, 2 h): 44 ± 25 per 5 min | Spontaneous Activities (per 5 min) ([7]; 80 mg/kg, 3 h): 58 ± 36 per 5 min | Spontaneous Activities (per 5 min) ([7]; 80 mg/kg, 4 h): 64 ± 36 per 5 min | Spontaneous Activities (per 5 min) ([7]; 160 mg/kg, 0.5 h): 40 ± 31 per 5 min | Spontaneous Activities (per 5 min) ([7]; 160 mg/kg, 1 h): 45 ± 25 per 5 min | Spontaneous Activities (per 5 min) ([7]; 160 mg/kg, 2 h): 38 ± 18 per 5 min | Spontaneous Activities (per 5 min) ([7]; 160 mg/kg, 3 h): 53 ± 23 per 5 min | Spontaneous Activities (per 5 min) ([7]; 160 mg/kg, 4 h): 58 ± 26 per 5 min | Purkinje cell morphology (Purkinje cells): did not cause significant change | Plasma protein binding, levo- vs dextro-ornidazole (plasma protein): Similar

Cc1ncc([N+](=O)[O-])n1C[C@@H](O)CCl [D-ornidazole, R-(+)-ornidazole]
Mortality Rate ([1]; 40 mg/kg i.v., n=10): 10/10 | Rate of Convulsion ([1]; 40 mg/kg i.v., n=10): 10/10 | Rate of Convulsion ([1]; 80 mg/kg i.v., n=10): 5/10* | Mortality Rate ([1]; 80 mg/kg i.v., n=10, listed as Dextro-ornidazole, 80 mg/kg): 0/10** | Mortality Rate ([1]; 80 mg/kg i.v., n=10, listed as dextro-ornidazole, 80 mg/kg): 0/10 | Mortality Rate ([1]; 160 mg/kg i.v., n=10): 0/10** | Rate of Convulsion ([1]; 160 mg/kg i.v., n=10): 0/10** | Convulsion Latency ([2]; 40 mg/kg i.v.): 6.0 ± 0.7 min | Mortality Rate ([2]; 40 mg/kg i.v.): 10/10 | Convulsion Latency ([2]; 80 mg/kg i.v.): 8.0 ± 2.0 min | Mortality Rate ([2]; 80 mg/kg i.v.): 7/10 | Convulsion Latency ([2]; 160 mg/kg i.v.): 9.1 ± 2.6 min | Mortality Rate ([2]; 160 mg/kg i.v.): 1/10** | Convulsion Latency ([3]; 40 mg/kg i.v.): 43.2 ± 5.4 min | Time to Death ([3]; 40 mg/kg i.v.): 53.6 ± 7.2 min | Convulsion Latency ([3]; 80 mg/kg i.v.): 46.1 ± 2.2 min | Time to Death ([3]; 80 mg/kg i.v.): 57.0 ± 7.3 min | Convulsion Latency ([3]; 160 mg/kg i.v.): 48.3 ± 14.1 min | Time to Death ([3]; 160 mg/kg i.v.): 81.5 ± 15.8 min | Convulsion Latency ([4]; 40 mg/kg i.v.): 94.3 ± 25.1 min | Time to Death ([4]; 40 mg/kg i.v.): 153.9 ± 43.7 min | Convulsion Latency ([4]; 80 mg/kg i.v.): 121.8 ± 16.8 min | Time to Death ([4]; 80 mg/kg i.v.): 213.6 ± 56.5 min | Mortality Rate [4]: 2/10** | Rate of Convulsion [4]: 3/10** | Effect on glutamate levels in cerebrum and cerebellum (glutamate; FIG. 4): significantly decreased | Spontaneous Activities (per 5 min) ([7]; 40 mg/kg, 0.5 h): 52 ± 23 per 5 min | Spontaneous Activities (per 5 min) ([7]; 40 mg/kg, 1 h): 44 ± 19 per 5 min | Spontaneous Activities (per 5 min) ([7]; 40 mg/kg, 2 h): 35 ± 20 per 5 min | Spontaneous Activities (per 5 min) ([7]; 40 mg/kg, 3 h): 47 ± 33 per 5 min | Spontaneous Activities (per 5 min) ([7]; 40 mg/kg, 4 h): 62 ± 31 per 5 min | Spontaneous Activities (per 5 min) ([7]; 80 mg/kg, 0.5 h): 25 ± 15 per 5 min | Spontaneous Activities (per 5 min) ([7]; 80 mg/kg, 1 h): 16 ± 21 per 5 min | Spontaneous Activities (per 5 min) ([7]; 80 mg/kg, 2 h): 17 ± 15 per 5 min | Spontaneous Activities (per 5 min) ([7]; 80 mg/kg, 3 h): 27 ± 17 per 5 min | Spontaneous Activities (per 5 min) ([7]; 80 mg/kg, 4 h): 34 ± 17 per 5 min | Spontaneous Activities (per 5 min) ([7]; 160 mg/kg, 0.5 h): 0 ± 0 per 5 min | Spontaneous Activities (per 5 min) ([7]; 160 mg/kg, 1 h): 0 ± 0 per 5 min | Spontaneous Activities (per 5 min) ([7]; 160 mg/kg, 2 h): 0 ± 0 per 5 min | Spontaneous Activities (per 5 min) ([7]; 160 mg/kg, 3 h): 3 ± 3 per 5 min | Spontaneous Activities (per 5 min) ([7]; 160 mg/kg, 4 h): 5 ± 5 per 5 min | Purkinje cell morphology (Purkinje cells): Purkinje cell denaturing and morphology change | Plasma protein binding, levo- vs dextro-ornidazole (plasma protein): Similar
